# Laboratory results taken from PubChem BioAssay AID330 (DTP/NCI, 2004).
# “And” between values parts separate entries of the source, which are not always exact repeats. Equal entries are not always repeated. Toxic doses and inconclusive results are not listed.
# System: P388 leukemia ip, CD2F1 mice, survival T/C
# Test: NCI In Vivo Anticancer Drug Screen. Data for tumor model P388 Leukemia (intraperitoneal) in CD2F1 (CDF1) mice
# Conditions: endpoint: median survival time, higher = longer survival
# How it was run: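 Mice carrying the transplanted tumor received test compound or vehicle. Survival was recorded in each group, and the value is the treated-group measurement divided by that of the vehicle-treated control group.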
# [1] = dose: 50.0 mg/kg/injection, schedule: Q01DX009 (ip), vehicle: saline with Tween-80
# [2] = dose: 100.0 mg/kg/injection, schedule: Q01DX009 (ip), vehicle: saline with Tween-80
# [3] = dose: 50.0 mg/kg/injection, schedule: Q01DX005 (ip), vehicle: saline with Tween-80
# [4] = dose: 50.0 mg/kg/injection, schedule: Q01DX005 (ip), vehicle: saline
# [5] = dose: 200.0 mg/kg/injection, schedule: Q01DX009 (ip), vehicle: saline with Tween-80
# [6] = dose: 30.0 mg/kg/injection, schedule: Q01DX005 (ip), vehicle: saline with Tween-80
# [7] = dose: 60.0 mg/kg/injection, schedule: Q01DX005 (ip), vehicle: saline with Tween-80
# [8] = dose: 120.0 mg/kg/injection, schedule: Q01DX005 (ip), vehicle: saline with Tween-80
# [9] = dose: 240.0 mg/kg/injection, schedule: Q01DX005 (ip), vehicle: saline with Tween-80
# [10] = dose: 100.0 mg/kg/injection, schedule: Q01DX005 (ip), vehicle: saline with Tween-80
# [11] = dose: 200.0 mg/kg/injection, schedule: Q01DX005 (ip), vehicle: saline with Tween-80
smiles,measurement,setting,value
O=P(c1ccccc1)(c1ccccc1)c1ccccc1.O=P(c1ccccc1)(c1ccccc1)c1ccccc1.O=P(c1ccccc1)(c1ccccc1)c1ccccc1.O=P(c1ccccc1)(c1ccccc1)c1ccccc1.[Co+2].[O-][Cl+3]([O-])([O-])O,T/C,[1],96 % of control
same,T/C,[2],99 % of control
CC1CCC2C(OC(=O)C23CO3)C2(C)C(=O)C=CC12 (configuration not stated),T/C,"dose: 2.5 mg/kg/injection, schedule: Q01DX009 (ip), vehicle: saline + alcohol",86 % of control
same,T/C,"dose: 5.0 mg/kg/injection, schedule: Q01DX009 (ip), vehicle: saline + alcohol",100 % of control
same,T/C,"dose: 10.0 mg/kg/injection, schedule: Q01DX009 (ip), vehicle: saline + alcohol",101 % of control
same,T/C,"dose: 20.0 mg/kg/injection, schedule: Q01DX009 (ip), vehicle: saline + alcohol",99 % of control
CCOC(=O)C(c1ccccc1)N(CCCN(CC)CC)c1ccccc1 (configuration not stated),T/C,"dose: 12.5 mg/kg/injection, schedule: Q01DX005 (ip), vehicle: saline",108 % of control
same,T/C,"dose: 25.0 mg/kg/injection, schedule: Q01DX005 (ip), vehicle: saline",108 % of control
same,T/C,[3],100 % of control
same,T/C,[4],101 % of control
O=C1OC(CCCl)CN1Cc1ccccc1 (configuration not stated),T/C,"dose: 50.0 mg/kg/injection, schedule: Q01DX009 (ip), vehicle: saline",103 % of control
same,T/C,"dose: 100.0 mg/kg/injection, schedule: Q01DX009 (ip), vehicle: saline",103 % of control
same,T/C,"dose: 200.0 mg/kg/injection, schedule: Q01DX009 (ip), vehicle: saline",98 % of control
COc1cc(C2c3cc4c(cc3[C@@H](OC3OC(COC(C)=O)C(OC(C)=O)C(OC(C)=O)C3OC(C)=O)[C@H]3COC(=O)[C@H]23)OCO4)cc(OC)c1OC (some centres not stated),T/C,"dose: 4.0 mg/kg/injection, schedule: Q01DX005 (ip), vehicle: saline",107 % of control
same,T/C,"dose: 8.0 mg/kg/injection, schedule: Q01DX005 (ip), vehicle: saline",113 % of control
same,T/C,"dose: 16.0 mg/kg/injection, schedule: Q01DX005 (ip), vehicle: saline",105 % of control
same,T/C,"dose: 32.0 mg/kg/injection, schedule: Q01DX005 (ip), vehicle: saline",98 % of control and 105 % of control
same,T/C,"dose: 64.0 mg/kg/injection, schedule: Q01DX005 (ip), vehicle: saline",100 % of control
same,T/C,"dose: 128.0 mg/kg/injection, schedule: Q01DX005 (ip), vehicle: saline",100 % of control
CCCCN=Cc1c(O)c(O)c(C(C)C)c2cc(C)c(-c3c(C)cc4c(C(C)C)c(O)c(O)c(C=NCCCC)c4c3O)c(O)c12,T/C,"dose: 50.0 mg/kg/injection, schedule: Q01DX005 (ip), vehicle: Klucel (hydroxypropylcellulose) (HPC)",99 % of control
same,T/C,"dose: 100.0 mg/kg/injection, schedule: Q01DX005 (ip), vehicle: Klucel (hydroxypropylcellulose) (HPC)",107 % of control
same,T/C,"dose: 200.0 mg/kg/injection, schedule: Q01DX005 (ip), vehicle: Klucel (hydroxypropylcellulose) (HPC)",114 % of control
FC(F)(F)C1(C(F)(F)F)CC2COc3ccccc3C2=N1 (configuration not stated),T/C,"dose: 50.0 mg/kg/injection, schedule: Q04DX002 (ip), vehicle: suspension in saline",100 % of control
same,T/C,"dose: 100.0 mg/kg/injection, schedule: Q04DX002 (ip), vehicle: suspension in saline",99 % of control
same,T/C,"dose: 200.0 mg/kg/injection, schedule: Q04DX002 (ip), vehicle: suspension in saline",100 % of control
COC1/C=C/OC2(C)Oc3c(C)c(O)c4c(c3C2=O)C(=O)C=C(NC(=O)/C(C)=C\C=C\C(C)C2OC(C)(C)OC(C2C)C(C)C(OC(C)=O)C1C)C4=O (configuration not stated),T/C,[1],106 % of control
same,T/C,[2],113 % of control
same,T/C,[5],117 % of control
CC(C)(CC#N)c1cc(CC(C)(C)c2cc(CC(C)(C)c3cc(CC(C)(C)C4(C)OCCO4)no3)no2)no1,T/C,[6],87 % of control
same,T/C,[7],90 % of control and 91 % of control
same,T/C,[8],86 % of control
same,T/C,[9],87 % of control
C[C@@H]1C(N2CCCC2)=CC(=O)OC1c1ccccc1 (some centres not stated),T/C,[7],105 % of control
same,T/C,[8],109 % of control
same,T/C,[9],111 % of control
O/N=C1/CCCCC/C1=N/O,T/C,[1],98 % of control
same,T/C,[2],100 % of control
same,T/C,[5],100 % of control
same,T/C,"dose: 400.0 mg/kg/injection, schedule: Q01DX009 (ip), vehicle: saline with Tween-80",107 % of control
CCCCCCCCCCN1COC2Cc3ccccc3CC21 (configuration not stated),T/C,[4],99 % of control
same,T/C,"dose: 100.0 mg/kg/injection, schedule: Q01DX005 (ip), vehicle: saline",100 % of control
same,T/C,"dose: 200.0 mg/kg/injection, schedule: Q01DX005 (ip), vehicle: saline",100 % of control
Cc1ccc([Si]23OC(C)CN(CC(C)O2)CC(C)O3)cc1 (configuration not stated),T/C,[3],100 % of control
same,T/C,[10],109 % of control
same,T/C,[11],100 % of control
CCCCn1cnc2c(=S)nc[nH]c21,T/C,[3],94 % of control
same,T/C,[10],105 % of control
same,T/C,[11],102 % of control
CN(/N=C(C#N)/C(N)=N/N)c1ccccc1,T/C,"dose: 100.0 mg/kg/injection, schedule: Q04DX002 (ip), vehicle: saline with Tween-80",96 % of control
same,T/C,"dose: 200.0 mg/kg/injection, schedule: Q04DX002 (ip), vehicle: saline with Tween-80",96 % of control
O=C(SC(O)c1ccc(Cl)cc1)c1ccccc1 (configuration not stated),T/C,"dose: 50.0 mg/kg/injection, schedule: Q01DX009 (ip), vehicle: Klucel (hydroxypropylcellulose) (HPC)",99 % of control
same,T/C,"dose: 100.0 mg/kg/injection, schedule: Q01DX009 (ip), vehicle: Klucel (hydroxypropylcellulose) (HPC)",106 % of control
same,T/C,"dose: 200.0 mg/kg/injection, schedule: Q01DX009 (ip), vehicle: Klucel (hydroxypropylcellulose) (HPC)",105 % of control
c1ccc2c(Nc3ccc(C4=NCCN4)cc3)nnc(Nc3ccc(C4=NCCN4)cc3)c2c1,T/C,"dose: 3.13 mg/kg/injection, schedule: Q04DX003 (ip), vehicle: saline with Tween-80",100 % of control
same,T/C,"dose: 6.25 mg/kg/injection, schedule: Q04DX003 (ip), vehicle: saline with Tween-80",110 % of control
same,T/C,"dose: 12.5 mg/kg/injection, schedule: Q04DX003 (ip), vehicle: saline with Tween-80",110 % of control
same,T/C,"dose: 25.0 mg/kg/injection, schedule: Q01DX009 (ip), vehicle: saline with Tween-80",195 % of control
same,T/C,[1],210 % of control
same,T/C,[2],250 % of control
same,T/C,"dose: 100.0 mg/kg/injection, schedule: Q04DX003 (ip), vehicle: saline with Tween-80",154 % of control and 168 % of control
CCCCCCCCCCCCCCCCCC[N+]1(CC)CCCCC1,T/C,"dose: 0.04 mg/kg/injection, schedule: Q01DX009 (ip), vehicle: saline",95 % of control
same,T/C,"dose: 0.09 mg/kg/injection, schedule: Q01DX009 (ip), vehicle: saline",92 % of control
same,T/C,"dose: 0.19 mg/kg/injection, schedule: Q01DX009 (ip), vehicle: saline",103 % of control and 118 % of control
same,T/C,"dose: 0.39 mg/kg/injection, schedule: Q01DX009 (ip), vehicle: saline",113 % of control and 120 % of control
same,T/C,"dose: 0.78 mg/kg/injection, schedule: Q01DX009 (ip), vehicle: saline",99 % of control
Nc1ccccc1S(=O)(=O)Nc1c(N)nc(SCC(=O)O)[nH]c1=O,T/C,"dose: 15.0 mg/kg/injection, schedule: Q01DX005 (ip), vehicle: saline with Tween-80",98 % of control and 101 % of control
same,T/C,[6],100 % of control and 95 % of control
same,T/C,[7],100 % of control and 95 % of control
same,T/C,"dose: 120.0 mg/kg/injection, schedule: Q01DX005 (ip), vehicle: Klucel (hydroxypropylcellulose) (HPC)",87 % of control and 96 % of control
same,T/C,[8],99 % of control and 98 % of control
same,T/C,"dose: 240.0 mg/kg/injection, schedule: Q01DX005 (ip), vehicle: Klucel (hydroxypropylcellulose) (HPC)",98 % of control and 93 % of control
CCOc1cccc(/C=N\Nc2nc(=O)cc(C(=O)OC)s2)c1O,T/C,[3],97 % of control
same,T/C,[10],104 % of control
same,T/C,[11],107 % of control
CCOC(=O)C(N=Nc1ccccc1)/N=N\c1nn[nH]n1 (configuration not stated),T/C,"dose: 50.0 mg/kg/injection, schedule: Q01DX001 (ip), vehicle: Klucel (hydroxypropylcellulose) (HPC)",91 % of control
same,T/C,"dose: 100.0 mg/kg/injection, schedule: Q01DX001 (ip), vehicle: Klucel (hydroxypropylcellulose) (HPC)",91 % of control
same,T/C,"dose: 200.0 mg/kg/injection, schedule: Q01DX001 (ip), vehicle: Klucel (hydroxypropylcellulose) (HPC)",91 % of control
N#CNC1=C(C#N)C(c2ccccc2)CC(=O)N1 (configuration not stated),T/C,[7],97 % of control
same,T/C,[8],101 % of control
same,T/C,[9],100 % of control
Cc1ccc(C(=O)C2(c3ccc(C)cc3)CCCCC2)cc1,T/C,"dose: 50.0 mg/kg/injection, schedule: Q04DX002 (ip), vehicle: Klucel (hydroxypropylcellulose) (HPC)",91 % of control
same,T/C,"dose: 100.0 mg/kg/injection, schedule: Q04DX002 (ip), vehicle: Klucel (hydroxypropylcellulose) (HPC)",90 % of control
same,T/C,"dose: 200.0 mg/kg/injection, schedule: Q04DX002 (ip), vehicle: Klucel (hydroxypropylcellulose) (HPC)",95 % of control
same,T/C,"dose: 400.0 mg/kg/injection, schedule: Q04DX002 (ip), vehicle: Klucel (hydroxypropylcellulose) (HPC)",91 % of control
Cc1[nH]nc2c1CC(c1ccccc1)NC2=O (configuration not stated),T/C,[3],92 % of control
same,T/C,[10],94 % of control
same,T/C,[11],94 % of control
